Like-named read-outs stand apart in the source and are kept apart here.
Assays:
Mab PPAT = Mab PPAT (Mycobacteroides abscessus, UniProt B1MDL6); assay: Isothermal titration calorimetry (ITC) on Mab PPAT; type: binding, Mycobacterium abscessus; conditions: for Kd: ITC
Procedure: ITC experiments were done using an ITC200 (MicroCal) instrument. The Mab PPAT protein for ITC was dialysed overnight at 4°C in storage buffer (50 mM Tris-HCl pH 8.0, 150 mM NaCl) the same buffer was used for preparing the ligand solutions. The protein and ligands/fragments were used at a concentration of 72 μM and 1–5 mM, respectively. ITC recorded for ATP was done in buffer: 50 mM Hepes pH 8.0, 150 mM NaCl, 5 mM MgCl2, at Mab PPAT concentration of 200 uM and 3 mM ATP. Buffer components and other constituents like DMSO were kept constant in both protein and ligand solutions. Ligands to buffer titrations were subtracted in all cases and experiments were repeated at least twice. Data were analysed using the Origin software (OriginLab, Northampton, MA, United States).

[1] = system: M. abscessus ATCC19977 whole-cell cultures; assay: Whole-cell luciferase-reporter based luminescence assay; parameters: species or system Mycobacterium abscessus; conditions: up to a concentration of 200 µM; in comparison to positive control Amikacin; data not shown
Mtb PPAT = molecular target: Mtb PPAT; parameters: method as in El Bakali et al., 2020; conditions: ref El Bakali et al., 2020; cited from earlier work
M. abscessus PPAT = M. abscessus PPAT (Mycobacteroides abscessus, UniProt B1MDL6); type: binding, Mycobacterium abscessus; conditions: Table 1; 10 μM PPAT, 5 mM compound, 5% DMSO
Chain of M. abscessus PPAT (B1MDL6 whole entry): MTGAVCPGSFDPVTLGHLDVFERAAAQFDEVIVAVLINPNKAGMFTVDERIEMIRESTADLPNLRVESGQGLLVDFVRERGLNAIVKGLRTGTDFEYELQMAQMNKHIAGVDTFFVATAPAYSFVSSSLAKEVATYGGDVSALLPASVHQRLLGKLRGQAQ

[2] = Mab PPAT 72 μM, 50 mM Tris-HCl pH 8.0, 150 mM NaCl, read-out: Kd (Mab PPAT)
[3] = Mab PPAT, 50 mM Tris-HCl pH 8.0, 150 mM NaCl, read-out: Kd

Chain of Mab PPAT (B1MDL6 whole entry, the tested form may be a part): as the sequence (B1MDL6 whole entry) above

SMILES | ΔΤm (M. abscessus PPAT) | further results
Nc1ncnc2c1ncn2[C@@H]1O[C@H](COP(=O)(O)OP(=O)(O)OP(=O)(O)O)[C@@H](O)[C@H]1O [ATP, Adenosine 5′ triphosphate, reference compound] |  | Kd (Mab PPAT; 50 mM Hepes pH 8.0, 150 mM NaCl, 5 mM MgCl2, Mab PPAT 200 uM, 3 mM ATP, read-out: Kd): 20.1 ± 3.3 µM
CC(C)(COP(=O)(O)OP(=O)(O)OC[C@H]1O[C@@H](n2cnc3c(N)ncnc32)[C@H](O)[C@@H]1OP(=O)(O)O)[C@@H](O)C(=O)NCCC(=O)NCCS [Coenzyme A, reference compound] |  | Kd (Mab PPAT; [2]): 8.2 ± 1.1 µM
O=C(O)c1cnn(-c2ccccc2)c1OCCCc1c[nH]c2ccccc12 [Compound 20] |  | Kd (Mab PPAT; [2]): 3.2 ± 0.8 µM; binding affinity on Mab PPAT relative to that on Mtb PPAT (Mab PPAT; Mab PPAT versus Mtb PPAT (Kd 15 ± 4 µM)): ~5 fold; affinity relative to affinity of Mab PPAT for the substrate ATP (Mab PPAT; Mab PPAT, compound versus ATP): ≈ 7 fold; cellular activity on whole-cell cultures [1]: low cellular activity; Kd (Mtb PPAT): 15 ± 4 µM
Cc1c(C(=O)O)cnn1-c1ccccc1 [Fragment 1] | +6 °C | Kd (Mab PPAT; [3]): 540 ± 20 µM
O=C(O)c1ccc2[nH]nc(Br)c2c1 [Fragment 2] | +12.5 °C | 
Cc1cn(CCC(=O)O)c2ccccc12 [Fragment 3] | +0.5 °C | 
O=C(O)C(O)c1cccc(Oc2ccccc2)c1 (stereo not shown) [Fragment 4] | +2.5 °C | 
O=C(O)CCc1c[nH]c2ccccc12 [Fragment 5] | +3.5 °C | Kd (Mab PPAT; [3]): 3200 ± 20 µM
O=C(O)c1ccccc1C(=O)c1ccc(Cl)c([N+](=O)[O-])c1 [Fragment 6] | +4.5 °C | 
O=C(O)c1cc2cc(F)ccc2[nH]1 [Fragment 7] | +3.5 °C | 
O=C(O)c1ccc2cc(F)ccc2c1 [Fragment 8] | +2.9 °C | 
O=C(O)Cc1ccc2ccccc2c1 [Fragment 9] | +2.3 °C | 
Cc1ccc(C(=O)O)c(C(=O)O)n1 [Fragment 10] | +2.0 °C | 
O=C(O)c1cc2ccccc2cc1O [Fragment 11] | +2.0 °C | 
O=C(O)C(O)Cc1c[nH]c2ccccc12 (stereo not shown) [Fragment 12] | +1.5 °C | 
N#Cc1ccc(Cl)cc1N [Fragment 13] | +1.5 °C | 
O=C(O)CCn1ccc2ccccc21 [Fragment 14] | +1 °C | 
Cc1ccc2oc(=O)cc(O)c2c1 [Fragment 15] | +0.5 °C | 
O=C(O)Cn1ccc2ccccc21 [Fragment 16] | -0.5 °C | 

Source: PMC9197168, “Structural Characterization of Mycobacterium abscessus Phosphopantetheine Adenylyl Transferase Ligand Interactions: Implications for Fragment-Based Drug Design” (Frontiers in Molecular Biosciences, 2022)
